Reference: patent publication US11976057B2, “MrgX2 antagonists” (GlaxoSmithKline Intellectual Property Development Limited, priority 2020, dated 2024)

target: T1, human MRGPRX2 (Homo sapiens, UniProt Q96LB1); assay: Ca2+ mobilization assay (FLIPR TETRA): inhibition of Cortistatin-14 mediated MRGPRX2 activation
T1 sequence (Q96LB1 1-330): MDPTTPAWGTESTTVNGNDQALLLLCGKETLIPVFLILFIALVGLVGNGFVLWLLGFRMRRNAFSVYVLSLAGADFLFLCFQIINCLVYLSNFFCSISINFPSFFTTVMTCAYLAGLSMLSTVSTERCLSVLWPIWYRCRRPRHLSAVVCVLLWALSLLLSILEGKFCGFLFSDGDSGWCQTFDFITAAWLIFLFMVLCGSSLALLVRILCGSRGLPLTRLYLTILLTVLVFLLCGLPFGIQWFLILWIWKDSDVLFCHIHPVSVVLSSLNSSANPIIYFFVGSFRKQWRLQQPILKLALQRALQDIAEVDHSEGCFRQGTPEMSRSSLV

SMILES	IC50
C[C@@H](C(=O)Nc1ccc(F)cn1)N1CCC(F)(F)[C@@H](c2c[nH]c(=O)c(N)n2)C1 [Example 106, (S)-2-((R)-3-(6-amino-5-oxo-4,5-dihydropyrazin-2-yl)-4,4-difluoropiperidin-l-y1)-N-(5-fluoropyridin-2-yl) propanamide]	10 to 100 nM
C[C@@H](C(=O)Nc1ncc(OCC2CC2)cc1F)N1CCC(F)(F)[C@@H](c2ccc(=O)[nH]c2)C1 [Example 28, (S)-N-(5-(cyclopropyl-methoxy)-3-fluoropyridin-2-yl)-2-((S)-4,4-difluoro-3-(6-oxo-1,6-dihydropyridin-3-yl)piperidin-1-yl)propanamide]	100 to 3160 nM
C[C@@H](C(=O)Nc1cc(F)c(OCC2CC2)cn1)N1CCC(F)(F)[C@@H](c2ccc(=O)[nH]c2)C1 [Example 76, (S)-N-(5-(cyclopropyl-methoxy)-4-fluoropyridin-2-yl)-2-((S)-4,4-difluoro-3-(6-oxo-1,6-dihydropyridin-3-yl)piperidin-1-yl)propanamide]	10 to 100 nM
C[C@@H](C(=O)Nc1ccc(Oc2ccccc2)nn1)N1CCC(F)(F)[C@@H](c2ccc(=O)[nH]c2)C1 [Example 19, 2-((S)-4,4-difluoro-3-(6-oxo-1,6-dihydropyridin-3-yl)piperidin-1-yl)-N-(6-phenoxy-pyridazin-3-yl)propanamide]	100 to 3160 nM
C[C@@H](C(=O)Nc1ccc(/C=C\C2CC2)cn1)N1CCC(F)(F)[C@@H](c2ccc(=O)[nH]c2)C1 [Example 80, (S)-N-(5-((Z)-2-cyclopropylvinyl)pyridin-2-yl)-2-((S)-4,4-difluoro-3-(6-oxo-1,6-dihydropyridin-3-yl)piperidin-1-yl)propanamide]	10 to 100 nM
CC(C(=O)Nc1ccc(Cc2cccnc2)cn1)N1CCC(F)(F)[C@@H](c2ccc(=O)[nH]c2)C1 (stereo partly drawn) [Example 45, 2-((S)-4,4-difluoro-3-(6-oxo-1,6-dihydropyridin-3-yl)piperidin-1-yl)-N-(5-(pyridin-3-ylmethyl)pyridin-2-yl)propanamide]	3160 to 31600 nM
C[C@@H](C(=O)Nc1ccc(OCc2ncco2)cn1)N1CCC(F)(F)[C@@H](c2ccc(=O)[nH]c2)C1 [Example 38, (S)-2-((S)-4,4-difluoro-3-(6-oxo-1,6-dihydropyridin-3-yl)piperidin-1-yl)-N-(5-(oxazol-2-ylmethoxy)pyridin-2-yl)propanamide]	100 to 3160 nM
CC(C(=O)Nc1ccc(-c2ccon2)cn1)N1CCC(F)(F)[C@@H](c2ccc(=O)[nH]c2)C1 (stereo partly drawn) [Example 56, 2-((S)-4,4-difluoro-3-(6-oxo-1,6-dihydropyridin-3-yl)piperidin-1-yl)-N-(5-(isoxazol-3-yl)pyridin-2-yl)propanamide]	3160 to 31600 nM
C[C@@H](C(=O)Nc1ccc(Oc2ccc(F)cc2CN(C)C)cn1)N1CCC(F)(F)[C@@H](c2ccc(=O)[nH]c2)C1 [Example 98, (S)-2-((S)-4,4-difluoro-3-(6-oxo-1,6-dihydropyridin-3-yl)piperidin-1-yl)-N-(5-(2-((dimethylamino)methyl)-4-fluorophenoxy)pyridin-2-yl)propanamide]	100 to 3160 nM
C[C@@H](C(=O)Nc1ccc(Cl)cn1)N1CCC(F)(F)[C@@H](c2ccc(=O)[nH]c2)C1 [Example 81, (S)-N-(5-chloropyridin-2-yl)-2-((S)-4,4-difluoro-3-(6-oxo-1,6-dihydropyridin-3-yl)piperidin-1-yl)propanamide]	100 to 3160 nM
Cc1ccccc1Oc1ccc(NC(=O)[C@H](C)N2CCC(F)(F)[C@@H](c3ccc(=O)[nH]c3)C2)nn1 [Example 20]	100 to 3160 nM
C[C@@H](C(=O)Nc1ccc(OCC2CC2)cn1)N1CCC(F)(F)[C@@H](c2ccc(=O)[nH]c2)C1 [Example 75, (S)-N-(5-(cyclopropyl-methoxy)pyridin-2-yl)-2-((S)-4,4-difluoro-3-(6-oxo-1,6-dihydropyridin-3-yl)piperidin-1-yl)propanamide]	10 to 100 nM
C[C@@H](C(=O)Nc1ccc(Oc2ccncn2)cn1)N1CCC(F)(F)[C@@H](c2ccc(=O)[nH]c2)C1 [Example 74, (S)-2-((S)-4,4-difluoro-3-(6-oxo-1,6-dihydropyridin-3-yl)piperidin-1-yl)-N-(5-(pyrimidin-4-yloxy)pyridin-2-yl)propanamide]	100 to 3160 nM

Second part, the molecule after the results:

IC50	SMILES
≤ 10 nM	C[C@@H](C(=O)Nc1ccc(Oc2ncc(F)cc2F)cn1)[C@H]1CCC(F)(F)[C@@H](c2cc[n+]([O-])cc2)C1 [Example 293, 4-((1R,5S)-5-((R)-1-((5-((3,5-difluoropyridin-2-yl)oxy)pyridin-2-yl)amino)-1-oxopropan-2-yl)-2,2-difluorocyclohexyl)pyridine 1-oxide]
100 to 3160 nM	C[C@@H](C(=O)Nc1ccc(F)cn1)N1CCC(F)(F)C(c2cc(CO)c(=O)n(CC(F)(F)F)c2)C1 (stereo partly drawn) [Example 199, (2S)-2-(4,4-difluoro-3-(5-(hydroxymethyl)-6-oxo-1-(2,2,2-trifluoroethyl)-1,6-dihydropyridin-3-yl)piperidin-1-yl)-N-(5-fluoropyridin-2-yl)propanamide]
10 to 100 nM	CC(C(=O)Nc1ccc(F)cn1)N1CCC(F)(F)C(c2cc[n+]([O-])c(C(O)C(F)(F)F)c2)C1 (centres unmarked) [Example 256, 4-(4,4-difluoro-1-(1-((5-fluoropyridin-2-yl)amino)-1-oxopropan-2-yl)piperidin-3-yl)-2-(2,2,2-trifluoro-1-hydroxyethyl)pyridine 1-oxide]
10 to 100 nM	C[C@@H](C(=O)Nc1ccc(F)cn1)N1CCC(F)(F)[C@@H](c2c[nH]c(=O)cn2)C1 [Example 135, (S)-2-((R)-4,4-difluoro-3-(5-oxo-4,5-dihydropyrazin-2-yl)piperidin-1-yl)-N-(5-fluoropyridin-2-yl)propanamide]
≤ 10 nM	C[C@@H](C(=O)Nc1ccc(OCC2CC2)nn1)N1CCC(F)(F)[C@@H](c2cc[n+]([O-])c(CC(F)(F)F)c2)C1 [Example 220]
≤ 10 nM	C[C@@H](C(=O)Nc1ccc(Oc2ccc(F)cc2F)cn1)N1CCC(F)(F)[C@@H](c2c[nH]c(=O)c(CNC3CC(F)(F)C3)c2)C1 [Example 241, (S)-2-((S)-3-(5-(((3,3-difluorocyclobutyl)amino)methyl)-6-oxo-1,6-dihydropyridin-3-yl)-4,4-difluoropiperidin-1-yl)-N-(5-(2,4-difluorophenoxy)pyridin-2-yl)propanamide]
100 to 3160 nM	C[C@@H](C(=O)Nc1ccc(Cl)cn1)N1CCC[C@@H](c2c[nH]c(=O)c(-c3ccccc3)c2)C1 (single isomer, unassigned) [Example 178]
10 to 100 nM	C[C@@H](C(=O)Nc1cnc(Oc2ccc(F)cc2CO)cn1)N1CCC(F)(F)[C@@H](c2ccc(=O)[nH]c2)C1 [Example 272]
10 to 100 nM	C[C@@H](C(=O)Nc1ccc(OCC2CC2)nn1)[C@H]1CCC(F)(F)[C@@H](c2ccc(=O)[nH]c2)C1 [Example 276, (R)-N-(6-(cyclopropylmethoxy)pyridazin-3-yl)-2-((1S,3R)-4,4-difluoro-3-(6-oxo-1,6-dihydropyridin-3-yl)cyclohexyl)propanamide]
≤ 10 nM	C[C@@H](C(=O)Nc1ccc(Oc2ccc(F)cc2F)cn1)N1CCC(F)(F)[C@@H](c2c[nH]c(=O)c(CN3CCC(F)(F)CC3)c2)C1 [Example 240, (S)-N-(5-(2,4-difluorophenoxy)pyridin-2-yl)-2-((S)-3-(5-((4,4-difluoropiperidin-1-yl)methyl)-6-oxo-1,6-dihydropyridin-3-yl)-4,4-difluoropiperidin-1-yl)propanamide]
